Measured values: paper PMC4182091, “A Common Minimal Motif for the Ligands of HLA-B*27 Class I Molecules” (PLoS ONE, 2014)
Where two headings read alike, the source gives them in different places. Ends that are not written are not given here.

What was measured:
Format in all cases: cell-based
HLA-B*2706 = target: T1, HLA-B*2706 (Homo sapiens, UniProt P01889, A235G/D201E/E204Q/G107R/H137Y/K202T/N104T/N87E/Q56L/Q94K/R106L/R155S/R180L/S121N/S48T/Y33H/Y91C); assay: HLA/peptide complex stability assay, RMA-S cells transfected with HLA-B*2706; conditions: for fluorescence index, B*2706: peptide 200 µM
T1 construct: expressed in transfected cells; host or cells: RMA-S (TAP-deficient murine cell line)

HLA-B*2701 = target: T2, HLA-B*2701 (Homo sapiens, UniProt P01889, D138H/D201E/D98Y/E176V/E204Q/G107R/H137Y/K202T/L105A/N104T/N87E/Q56L/Q94K/R106L/R155S/R180L/S101N/S121N/S48T/Y140D/Y33H/Y91C); assay: HLA/peptide complex stability assay, RMA-S cells transfected with HLA-B*2701; conditions: for fluorescence index, B*2701: peptide 200 µM
T2 construct: expressed in transfected cells; host or cells: RMA-S (TAP-deficient murine cell line)

HLA-B*2702 = HLA-B*2702 (Homo sapiens, UniProt P01889, D138H/D201E/E176V/E204Q/G107R/H137Y/K202T/L105A/N104I/N87E/Q56L/Q94K/R106L/R155S/R180L/S101N/S121N/S48T/Y140D/Y33H/Y91C); assay: HLA/peptide complex stability assay, RMA-S cells transfected with HLA-B*2702; conditions: for fluorescence index, B*2702: peptide 200 µM
HLA-B*2704 = HLA-B*2704 (Homo sapiens, UniProt P01889, A235G/D138H/D201E/E204Q/G107R/H137Y/K202T/N104T/N87E/Q56L/Q94K/R106L/R155S/R180L/S121N/S48T/Y140D/Y33H/Y91C); assay: HLA/peptide complex stability assay, RMA-S cells transfected with HLA-B*2704; conditions: for fluorescence index, B*2704: peptide 200 µM
HLA-B*2709 = target: T3, HLA-B*2709 (Homo sapiens, UniProt P01889, D138H/D201E/E176V/E204Q/G107R/H137Y/K202T/N104T/N87E/Q56L/Q94K/R106L/R155S/R180L/S101D/S121N/S48T/Y140H/Y33H/Y91C); assay: HLA/peptide complex stability assay, RMA-S cells transfected with HLA-B*2709; conditions: for fluorescence index, B*2709: peptide 200 µM
T3 construct: expressed in transfected cells; host or cells: RMA-S (TAP-deficient murine cell line)

HLA-B*2703 = target: T4, HLA-B*2703 (Homo sapiens, UniProt P01889, D138H/D201E/E176V/E204Q/G107R/H137Y/K202T/N104T/N87E/Q56L/Q94K/R106L/R155S/R180L/S101D/S121N/S48T/Y140D/Y33H/Y83H/Y91C); assay: HLA/peptide complex stability assay, RMA-S cells transfected with HLA-B*2703; conditions: for fluorescence index, B*2703: peptide 200 µM
T4 construct: expressed in transfected cells; host or cells: RMA-S (TAP-deficient murine cell line)

HLA-B*2705 = target: T5, HLA-B*2705 (Homo sapiens, UniProt P01889, D138H/D201E/E176V/E204Q/G107R/H137Y/K202T/N104T/N87E/Q56L/Q94K/R106L/R155S/R180L/S101D/S121N/S48T/Y140D/Y33H/Y91C); assay: HLA/peptide complex stability assay, RMA-S cells transfected with HLA-B*2705; conditions: for fluorescence index, B*2705: peptide 200 µM
T5 construct: expressed in transfected cells; host or cells: RMA-S (TAP-deficient murine cell line)

[1] = mean ± S.D. of three to five independent experiments, SD
[2] = relative affinity (EC50 class), B*2706
[3] = relative affinity (EC50 class), B*2701
[4] = relative affinity (EC50 class), B*2702
[5] = relative affinity (EC50 class), B*2704
[6] = relative affinity (EC50 class), B*2709
[7] = relative affinity (EC50 class), B*2703
[8] = relative affinity (EC50 class), B*2705

“ARANNVLKNEM [A1-NP 184-194, monosubstituted Ala analog of HRSV NP 184-194, […]]” was tested, and the “fluorescence index, B*2706” value (HLA-B*2706; [1]) was 3.0±0.3, the “fluorescence index, B*2701” value (HLA-B*2701; [1]) was 2.0±0.1 and the “fluorescence index, B*2702” value (HLA-B*2702; [1]) was 2.0±0.3. For the same sequence, the “fluorescence index, B*2704” value (HLA-B*2704; [1]) was 2.2±0.2, the “fluorescence index, B*2709” value (HLA-B*2709; [1]) was 1.8±0.1 and the “fluorescence index, B*2703” value (HLA-B*2703; [1]) was 1.4±0.1. The “fluorescence index, B*2705” value (HLA-B*2705; [1]) was 2.4±0.3.

With “ARYKGLLPKDI [A1-NP 195-205, monosubstituted Ala analog of HRSV NP 195-205, […]]” the “fluorescence index, B*2706” value (HLA-B*2706; [1]) was 2.7±0.3, the “fluorescence index, B*2701” value (HLA-B*2701; [1]) was 1.9±0.1 and the “fluorescence index, B*2702” value (HLA-B*2702; [1]) was 1.8±0.1. For the same sequence, the “fluorescence index, B*2704” value (HLA-B*2704; [1]) was 2.2±0.3, the “fluorescence index, B*2709” value (HLA-B*2709; [1]) was 1.8±0.2 and the “fluorescence index, B*2703” value (HLA-B*2703; [1]) was 2.1±0.2. For the same sequence, the “fluorescence index, B*2705” value (HLA-B*2705; [1]) was 2.4±0.3.

Sequence GRNEVFSNK [L 2089-2097] has an EC50 (HLA-B*2706; EC50, B*2706) of over 200 µM, an EC50 (HLA-B*2706; [2]) of over 200 µM and an EC50 (HLA-B*2701; read-out: EC50, B*2701) of over 200 µM. It also gave an EC50 (HLA-B*2701; [3]) of over 200 µM, an EC50 (HLA-B*2702; EC50, B*2702) of over 200 µM and an EC50 (HLA-B*2702; [4]) of over 200 µM. The EC50 (HLA-B*2704; EC50, B*2704, SD) was 169 ± 57 µM, the EC50 (HLA-B*2704; [5]) was 61 to 200 µM and the EC50 (HLA-B*2709; EC50, B*2709, SD) was 68 ± 24 µM. It also gave an EC50 (HLA-B*2709; [6]) of 61 to 200 µM, an EC50 (HLA-B*2703; EC50, B*2703, SD) of 71 ± 28 µM and an EC50 (HLA-B*2703; [7]) of 61 to 200 µM. For the same sequence, the “relative MHC class I affinity according to the EC50 value, in words (high, medium, low)” value (shortened to “relative MHC class I affinity according”) (HLA-B*2705) was “medium”, the EC50 (HLA-B*2705; EC50, B*2705, SD) was 32 ± 6 µM and the EC50 (HLA-B*2705; [8]) was 20 to 60 µM.

HRFIYLINH [NS2 37-45] was tested, and the EC50 (HLA-B*2706; EC50, B*2706, SD) was 45 ± 19 µM, the EC50 (HLA-B*2706; [2]) was 20 to 60 µM and the EC50 (HLA-B*2701; read-out: EC50, B*2701) was over 200 µM. For the same sequence, the EC50 (HLA-B*2701; [3]) was over 200 µM, the EC50 (HLA-B*2702; EC50, B*2702, SD) was 77 ± 14 µM and the EC50 (HLA-B*2702; [4]) was 61 to 200 µM. The EC50 (HLA-B*2704; EC50, B*2704, SD) was 78 ± 33 µM, the EC50 (HLA-B*2704; [5]) was 61 to 200 µM and the EC50 (HLA-B*2709; EC50, B*2709, SD) was 33 ± 9 µM. For the same sequence, the EC50 (HLA-B*2709; [6]) was 20 to 60 µM, the EC50 (HLA-B*2703; EC50, B*2703, SD) was 10 ± 5 µM and the “relative MHC class I affinity according” value (HLA-B*2705) was “high”. It also gave an EC50 (HLA-B*2705; EC50, B*2705, SD) of 7 ± 4 µM.

HRQDINGKEM [NP 100-109] gave an EC50 (HLA-B*2706; EC50, B*2706, SD) of 3 ± 2 µM, an EC50 (HLA-B*2701; EC50, B*2701) of over 200 µM and an EC50 (HLA-B*2701; [3]) of over 200 µM. The EC50 (HLA-B*2702; EC50, B*2702, SD) was 132 ± 53 µM, the EC50 (HLA-B*2702; [4]) was 61 to 200 µM and the EC50 (HLA-B*2704; EC50, B*2704, SD) was 67 ± 27 µM. The EC50 (HLA-B*2704; [5]) was 61 to 200 µM, the EC50 (HLA-B*2709; EC50, B*2709, SD) was 24 ± 7 µM and the EC50 (HLA-B*2709; [6]) was 20 to 60 µM. The EC50 (HLA-B*2703; EC50, B*2703, SD) was 96 ± 43 µM, the EC50 (HLA-B*2703; [7]) was 61 to 200 µM and the “relative MHC class I affinity according” value (HLA-B*2705) was “medium”. For the same sequence, the EC50 (HLA-B*2705; EC50, B*2705, SD) was 50 ± 15 µM and the EC50 (HLA-B*2705; [8]) was 20 to 60 µM.

For “KRAVGIGAL [HIV gp160 500-508, reference compound]”, the EC50 (HLA-B*2706; Table 2, peptide concentration at 50% of maximum fluorescence, range 0.01–200 µM, transfected RMA-S cells, flow cytometry, mean ± S.D. of three to five independent experiments, - = no statistical difference in fluorescence index to negative control, SD, read-out: EC50, B*2706) was 1 ± 1 µM, the EC50 (HLA-B*2701; Table 2, peptide concentration at 50% of maximum fluorescence, range 0.01–200 µM, transfected RMA-S cells, flow cytometry, mean ± S.D. of three to five independent experiments, - = no statistical difference in fluorescence index to negative control, SD, read-out: EC50, B*2701) was 17 ± 3 µM and the EC50 (HLA-B*2702; Table 2, peptide concentration at 50% of maximum fluorescence, range 0.01–200 µM, transfected RMA-S cells, flow cytometry, mean ± S.D. of three to five independent experiments, - = no statistical difference in fluorescence index to negative control, SD, read-out: EC50, B*2702) was 16 ± 6 µM. For the same sequence, the EC50 (HLA-B*2704; Table 2, peptide concentration at 50% of maximum fluorescence, range 0.01–200 µM, transfected RMA-S cells, flow cytometry, mean ± S.D. of three to five independent experiments, - = no statistical difference in fluorescence index to negative control, SD, read-out: EC50, B*2704) was 24 ± 8 µM, the EC50 (HLA-B*2704; Table 3, classes of EC50 from stabilization assay in transfected RMA-S cells, read-out: relative affinity (EC50 class), B*2704) was 20 to 60 µM and the EC50 (HLA-B*2709; Table 2, peptide concentration at 50% of maximum fluorescence, range 0.01–200 µM, transfected RMA-S cells, flow cytometry, mean ± S.D. of three to five independent experiments, - = no statistical difference in fluorescence index to negative control, SD, read-out: EC50, B*2709) was 8 ± 1 µM. For the same sequence, the EC50 (HLA-B*2703; Table 2, peptide concentration at 50% of maximum fluorescence, range 0.01–200 µM, transfected RMA-S cells, flow cytometry, mean ± S.D. of three to five independent experiments, - = no statistical difference in fluorescence index to negative control, SD, read-out: EC50, B*2703) was 14 ± 7 µM and the EC50 (HLA-B*2705; Table 2, peptide concentration at 50% of maximum fluorescence, range 0.01–200 µM, transfected RMA-S cells, flow cytometry, mean ± S.D. of three to five independent experiments, - = no statistical difference in fluorescence index to negative control, SD, read-out: EC50, B*2705) was 12 ± 3 µM.

With KRLPADVLKK [M2 150-159] the EC50 (HLA-B*2706; EC50, B*2706) was over 200 µM, the EC50 (HLA-B*2706; [2]) was over 200 µM and the EC50 (HLA-B*2701; read-out: EC50, B*2701) was over 200 µM. For the same sequence, the EC50 (HLA-B*2701; [3]) was over 200 µM, the EC50 (HLA-B*2702; EC50, B*2702, SD) was 136 ± 63 µM and the EC50 (HLA-B*2702; [4]) was 61 to 200 µM. For the same sequence, the EC50 (HLA-B*2704; EC50, B*2704, SD) was 73 ± 9 µM, the EC50 (HLA-B*2704; [5]) was 61 to 200 µM and the EC50 (HLA-B*2709; EC50, B*2709, SD) was 22 ± 9 µM. The EC50 (HLA-B*2709; [6]) was 20 to 60 µM, the EC50 (HLA-B*2703; EC50, B*2703, SD) was 78 ± 10 µM and the EC50 (HLA-B*2703; [7]) was 61 to 200 µM. The “relative MHC class I affinity according” value (HLA-B*2705) was “high” and the EC50 (HLA-B*2705; EC50, B*2705, SD) was 18 ± 3 µM.

In the case of KRYKGLLPKDI [NP 195-205], the EC50 (HLA-B*2706; EC50, B*2706, SD) is reported as 1 ± 1 µM, the EC50 (HLA-B*2701; EC50, B*2701, SD) is reported as 8 ± 1 µM and the EC50 (HLA-B*2702; EC50, B*2702, SD) is reported as 9 ± 1 µM. It also gave an EC50 (HLA-B*2704; EC50, B*2704, SD) of 16 ± 3 µM, an EC50 (HLA-B*2709; EC50, B*2709, SD) of 7 ± 2 µM and an EC50 (HLA-B*2703; EC50, B*2703, SD) of 20 ± 11 µM. The “relative MHC class I affinity according” value (HLA-B*2705) was “high” and the EC50 (HLA-B*2705; EC50, B*2705, SD) was 7 ± 5 µM.
